# Reference: PubChem BioAssay AID1259407 (Chemical Carcinogenesis Research Information System (CCRIS), 2018)
# Calls of active or inactive are those of the source. How the calls were made is not given here.
# System: CCRIS mutagenicity, Ames/micronucleus/aberration tests
# Assay: CCRIS mutagenicity studies
# [1] = Test System: AMES SALMONELLA TYPHIMURIUM, Strain/Indicator: TA98, Metabolic Activation: NONE, Method: STANDARD PLATE
# [2] = Test System: AMES SALMONELLA TYPHIMURIUM, Strain/Indicator: TA100, Metabolic Activation: NONE, Method: STANDARD PLATE
Structure (SMILES),"mutagenic call (Test System: AMES SALMONELLA TYPHIMURIUM, Strain/Indicator: TA98, Metabolic Activation: HAMSTER, LIVER, S-9, AROCLOR 1254 (10%), Method: STANDARD PLATE)",mutagenic call [1],"mutagenic call (Test System: AMES SALMONELLA TYPHIMURIUM, Strain/Indicator: TA98, Metabolic Activation: RAT, LIVER, S-9, AROCLOR 1254 (10%), Method: STANDARD PLATE)","mutagenic call (Test System: AMES SALMONELLA TYPHIMURIUM, Strain/Indicator: TA100, Metabolic Activation: HAMSTER, LIVER, S-9, AROCLOR 1254 (10%), Method: STANDARD PLATE)",mutagenic call [2],"mutagenic call (Test System: AMES SALMONELLA TYPHIMURIUM, Strain/Indicator: TA100, Metabolic Activation: RAT, LIVER, S-9, AROCLOR 1254 (10%), Method: STANDARD PLATE)","mutagenic call (Test System: AMES SALMONELLA TYPHIMURIUM, Strain/Indicator: TA1535, Metabolic Activation: HAMSTER, LIVER, S-9, AROCLOR 1254 (10%), Method: STANDARD PLATE)","mutagenic call (Test System: AMES SALMONELLA TYPHIMURIUM, Strain/Indicator: TA1535, Metabolic Activation: NONE, Method: STANDARD PLATE)","mutagenic call (Test System: AMES SALMONELLA TYPHIMURIUM, Strain/Indicator: TA1535, Metabolic Activation: RAT, LIVER, S-9, AROCLOR 1254 (10%), Method: STANDARD PLATE)","mutagenic call (Test System: AMES SALMONELLA TYPHIMURIUM, Strain/Indicator: TA1537, Metabolic Activation: HAMSTER, LIVER, S-9, AROCLOR 1254 (10%), Method: STANDARD PLATE)","mutagenic call (Test System: AMES SALMONELLA TYPHIMURIUM, Strain/Indicator: TA1537, Metabolic Activation: NONE, Method: STANDARD PLATE)","mutagenic call (Test System: AMES SALMONELLA TYPHIMURIUM, Strain/Indicator: TA1537, Metabolic Activation: RAT, LIVER, S-9, AROCLOR 1254 (10%), Method: STANDARD PLATE)","mutagenic call (Test System: AMES SALMONELLA TYPHIMURIUM, Strain/Indicator: TA1538, Metabolic Activation: HAMSTER, LIVER, S-9, AROCLOR 1254 (10%), Method: STANDARD PLATE)","mutagenic call (Test System: AMES SALMONELLA TYPHIMURIUM, Strain/Indicator: TA1538, Metabolic Activation: NONE, Method: STANDARD PLATE)","mutagenic call (Test System: AMES SALMONELLA TYPHIMURIUM, Strain/Indicator: TA1538, Metabolic Activation: RAT, LIVER, S-9, AROCLOR 1254 (10%), Method: STANDARD PLATE)","mutagenic call (Test System: MOUSE LYMPHOMA, Strain/Indicator: L5178Y (TK+/TK-), Metabolic Activation: NONE, Method: SUSPENSION/PLATE)","mutagenic call (Test System: MOUSE LYMPHOMA, Strain/Indicator: L5178Y (TK+/TK-), Metabolic Activation: RAT, LIVER, S-9, AROCLOR 1254, Method: SUSPENSION/PLATE)","mutagenic call (Test System: AMES SALMONELLA TYPHIMURIUM, Strain/Indicator: TA98, Metabolic Activation: RAT LIVER S-9, 3-METHYLCHOLANTHRENE, SODIUM PHENOBARBITAL, Method: STANDARD PLATE)","mutagenic call (Test System: AMES SALMONELLA TYPHIMURIUM, Strain/Indicator: TA100, Metabolic Activation: RAT LIVER S-9, 3-METHYLCHOLANTHRENE, SODIUM PHENOBARBITAL, Method: STANDARD PLATE)"
C=C[Si](C)(C)CCl,inactive; negative,inactive; negative,inactive; negative,inactive; negative,inactive; negative,inactive; negative,inactive; negative,inactive; negative,inactive; negative,inactive; negative,inactive; negative,inactive; negative,inactive; negative,inactive; negative,inactive; negative,inactive; negative. reevaluation of results: inconclusive,inactive; negative. reevaluation of results: negative,,
COc1ccc(-c2nc(-c3ccc(C)cc3)c(-c3ccc(C)cc3)[nH]2)cc1OC,,active; positive,,,active; positive,,,,,,,,,,,,,inactive; negative,inactive; negative
